What was measured:
CFTR = CFTR (Homo sapiens, UniProt P13569); assay: standard Ussing Chamber Assay for CFTR potentiator activity; type: cell-based
[1] = from Cc1cccc(C)c1-c1cc(OC(CN)c2ccc(Br)cc2)nc(NS(=O)(=O)c2cccc(C(=O)O)c2)n1; amide bond; 13-membered ring; HATU/DIEA; DMF; 26.4 mM; 25.0 °C; 2.0 h
[2] = from Cc1cccc(C)c1-c1cc(OC(CN)c2ccc(Br)cc2)nc(NS(=O)(=O)c2cccc(C(=O)O)c2)n1; amide bond; 13-membered ring; FDPP/DIEA; DMF; 36.8 mM; 25.0 °C; 1.0 h

Sequence of CFTR (P13569 whole entry, species assumed): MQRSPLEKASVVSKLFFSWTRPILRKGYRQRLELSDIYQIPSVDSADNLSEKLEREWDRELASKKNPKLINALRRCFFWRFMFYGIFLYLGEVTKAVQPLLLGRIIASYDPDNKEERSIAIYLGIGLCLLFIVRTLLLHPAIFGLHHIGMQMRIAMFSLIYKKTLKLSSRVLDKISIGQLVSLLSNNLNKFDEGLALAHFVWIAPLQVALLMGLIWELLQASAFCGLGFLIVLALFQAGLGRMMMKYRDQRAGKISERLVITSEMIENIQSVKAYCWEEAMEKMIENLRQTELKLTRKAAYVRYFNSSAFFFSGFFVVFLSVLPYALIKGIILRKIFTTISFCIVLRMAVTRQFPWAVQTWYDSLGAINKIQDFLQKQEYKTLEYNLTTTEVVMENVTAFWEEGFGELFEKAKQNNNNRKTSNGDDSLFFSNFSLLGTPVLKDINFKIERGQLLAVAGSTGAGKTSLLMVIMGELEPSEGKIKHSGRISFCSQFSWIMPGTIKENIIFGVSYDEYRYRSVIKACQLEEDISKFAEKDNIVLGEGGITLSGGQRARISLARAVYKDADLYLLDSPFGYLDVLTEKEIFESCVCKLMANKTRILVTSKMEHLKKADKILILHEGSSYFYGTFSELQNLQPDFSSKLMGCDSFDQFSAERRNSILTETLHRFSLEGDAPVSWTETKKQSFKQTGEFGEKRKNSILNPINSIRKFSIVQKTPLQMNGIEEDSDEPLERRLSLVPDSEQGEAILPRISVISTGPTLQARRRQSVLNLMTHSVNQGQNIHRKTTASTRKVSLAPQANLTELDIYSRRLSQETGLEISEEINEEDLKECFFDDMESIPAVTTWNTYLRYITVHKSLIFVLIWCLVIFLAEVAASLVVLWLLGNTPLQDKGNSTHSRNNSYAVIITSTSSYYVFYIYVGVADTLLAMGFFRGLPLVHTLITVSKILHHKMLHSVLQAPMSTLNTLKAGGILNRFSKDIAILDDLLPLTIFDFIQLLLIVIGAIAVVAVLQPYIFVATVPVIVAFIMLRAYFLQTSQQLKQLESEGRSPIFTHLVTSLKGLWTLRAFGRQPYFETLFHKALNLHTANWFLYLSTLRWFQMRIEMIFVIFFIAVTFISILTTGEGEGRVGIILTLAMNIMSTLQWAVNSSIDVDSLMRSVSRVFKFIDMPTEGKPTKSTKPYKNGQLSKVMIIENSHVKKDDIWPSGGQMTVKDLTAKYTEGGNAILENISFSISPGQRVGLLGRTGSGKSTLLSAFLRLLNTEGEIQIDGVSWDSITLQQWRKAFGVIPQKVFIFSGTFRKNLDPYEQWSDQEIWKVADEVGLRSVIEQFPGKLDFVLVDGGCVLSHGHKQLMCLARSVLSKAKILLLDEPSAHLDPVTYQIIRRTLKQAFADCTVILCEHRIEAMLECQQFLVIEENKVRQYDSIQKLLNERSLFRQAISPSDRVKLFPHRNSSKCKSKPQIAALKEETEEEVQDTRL

| SMILES | CFTR modulatory activity (CFTR) | ring closure, isolated yield [1] [%] | ring closure, yield after HPLC [2] [%] |
| --- | --- | --- | --- |
| C[C@@H]1CCCCC[C@](O)(C(F)(F)F)C2=NN=C(O2)c2nc(c(C(F)(F)F)cc2N)O1 [(6R,12R)-17-amino-12-methyl-6,15-bis(trifluoromethyl)-13,19-dioxa-3,4,18-triazatricyclo[12.3.1.12,5]nonadeca-1(18),2,4,14,16-pentaen-6-ol] | confirmed | – | – |
| Cc1cccc(C)c1-c1cc2nc(n1)NS(=O)(=O)c1cccc(c1)C(=O)NCC(c1ccc(Br)cc1)O2 (stereo not drawn) | – | 25 | 52 |

— patent US20230382924A1, “MODULATORS OF CYSTIC FIBROSIS TRANSMEMBRANE CONDUCTANCE REGULATOR” (VERTEX PHARMACEUTICALS INCORPORATED, priority 2020, published 2023)
